Reference: patent US20030045508A1, “(1r,cis)-4-(4-amino-7h-pyrrolo'2,3-i(d) pyrimidine-7-yl)-2-cyclopentene-1-methanol derivatives as antiviral” (priority 2002, published 2003)

How the values were obtained:
[1] = Acid stability (acid-mediated hydrolytic decomposition, simulated stomach conditions); format: physicochemical; settings: 0.1 N hydrochloric acid at 25° C.
Experimental: The compound of Example 3 was tested for stability towards acid-mediated hydrolytic decomposition employing a test designed to simulate stomach conditions. The compound was incubated at an initial concentration of 0.27 mg/mL in dilute hydrochloric acid at pH 1 for 72 hours at 37° C. HPLC was run immediately for t=0 and at intervals up to approximately 72 hours.
In contrast, the phosphoramidate of 2′,3′-dideoxy-adenosine (Compound 1093, PCT/GB9600580) had entirely decomposed by t=13 hours and 2′,3′-didehydro-2′,3′-dideoxy-adenosine (Compound 1001, PCT/GB96/00580) had entirely decomposed at t=0 in 0.1 N hydrochloric acid at 25° C.

time t at which entirely decomposed [1] [h]	melting point [°C]	Structure (SMILES)
0		Nc1ncnc2c1ncn2[C@H]1C=C[C@@H](CO)O1 [Compound 1001, 2′,3′-didehydro-2′,3′-dideoxy-adenosine]
	165 to 168	Nc1ncnc2c1ccn2[C@@H]1C=C[C@H](CO)C1 [Example 1, (+)-(1R, cis)-4-[4-Amino-7H-pyrrolo(2,3-d)pyrimidin-7-yl]-2-cyclopentene-1-methanol]
